Source: US10596166B2, “Combination composition comprising huperzine” (priority 2015, dated 2020)

Tested on: TH positive dopaminergic neurons injured with MPP+
Test: MPP+ toxicity on TH positive dopaminergic neurons of primary mesencephalic culture
Assay type: cell-based, rat
Conditions: MPP+ 4 μM, 48 h
Protocol: Rat dopaminergic neurons were cultured as described by Schinelli et al., J Neurochem. 1988 June; 50(6):1900-7 and Visanji et al., 2008 [previously cited].
Briefly, the midbrains obtained from 15-days old rat embryos (Janvier Labs, France) were dissected under a microscope. The embryonic midbrains were removed and placed in ice-cold medium of Leibovitz (L15, Pan Biotech) containing 2% of Penicillin-Streptomycin (PS, Pan Biotech) and 1% of bovine serum albumin (BSA, Pan Biotech). The ventral portion of the mesencephalic flexure, a region of the developing brain rich in dopaminergic neurons, was used for the cell preparations.
The midbrains were dissociated by trypsinisation for 20 min at 37° C. (Trypsin 0.05% EDTA 0.02%, PanBiotech). The reaction was stopped by the addition of Dulbecco's modified Eagle's medium (DMEM, PanBiotech) containing DNAase I grade II (0.1 mg/ml, PanBiotech) and 10% of foetal calf serum (FCS, Gibco). Cells were then mechanically dissociated by 3 passages through a 10 ml pipette. Cells were then centrifuged at 180×g for 10 min at +4° C. on a layer of BSA (3.5%) in L15 medium. The supernatant was discarded and the cell pellets were re-suspended in a defined culture medium consisting of Neurobasal (Invitrogen) supplemented with B27 (2%, Invitrogen, Batch: 1589889), L-glutamine (2 mM, PanBiotech) and 2% of PS solution and 10 ng/ml of Brain-derived neurotrophic factor (BDNF, PanBiotech) and 1 ng/ml of Glial-Derived Neurotrophic Factor (GDNF, PanBiotech). Viable cells were counted in a Neubauer cytometer using the trypan blue exclusion test. The cells were seeded at a density of 40 000 cells/well in 96 well-plates pre-coated with poly-L-lysine (Corning Biocoat) and maintained in a humidified incubator at 37° C. in 5% CO2/95% air atmosphere. Half of the medium was changed every 2 days with fresh medium.
On day 6 of culture, the medium was removed and fresh medium was added, without or with MPP^+ (Sigma) at 4 μM diluted in control medium, 6 wells per condition were assessed.
On day 6 of culture, NSP01-001-E001 (2.5, 5, 50, 500 ng/ml, 2.5, 5, 25, 33.3 μg/ml) were solved or diluted in culture medium and then pre-incubated with primary mesencephalic neurons for 1 hour before the MPP^+ application. MPP^+ solution was added to a final concentration of 4 μM diluted in control medium.
After 48 hours intoxication, the cells were then fixed by a solution of 4% paraformaldehyde (PFA, Sigma) in PBS (PAN), pH=7.3 for 20 min at room temperature. The cells were washed again twice in PBS, and then were permeabilized and non-specific sites were blocked with a solution of PBS containing 0.1% of saponin (Sigma) and 1% FCS for 15 min at room temperature. Then, cells were incubated with Monoclonal Anti-Tyrosine Hydroxylase (TH, Sigma) antibody produced in mouse at dilution of 1/10000 in PBS containing 1% FCS, 0.1% saponin, for 2 h at room temperature.
The immunolabeled cultures were automatically examined with ImageXpress (Molecular Devices) equipped with a LED at ×10 magnification. For each condition (6 culture wells), 20 automatically fields per well (representing ˜80% of the total surface of the well) were analyzed. The total number of TH neurons was automatically analyzed using MetaXpress software (Molecular Devices). Data were expressed in percentage of control conditions (no intoxication, no MPP^+=100%) in order to express the MPP^+ injury. All values were expressed as mean±SEM (s.e. mean) of the 6 wells. Graphs and statistical analyses were performed on the different conditions (ANOVA followed by Dunnett's or PLSD Fisher's test when allowed, using GraphPad Prism software).
The protocol used in these assays is the same as described in example 4.
HA (1, 10, 100 nM, 1, 10, 100 μM), CA (5, 50, 500 pM, 5, 50, 500 nM, 1 μM), FA (100 pM, 1, 10, 100 nM, 1, 10, 100 μM and 1 mM) and mixtures thereof were solved or diluted in culture medium and then pre-incubated with primary mesencephalic neurons for 1 hour before the MPP^+ application. […]

O=C(O)/C=C/c1ccc(O)c(O)c1 [CA, caffeic acid]
TH positive neuron survival (5 nM up to 1 μM): large and significant protective effect

COc1cc(/C=C/C(=O)O)ccc1O [FA, ferulic acid]
concentration of maximal effect (bell shape curve): 10 µM | TH positive neuron survival (100 pM up to 100 nM): inactive | TH positive neuron survival (from 1 μM to 1 mM): significant protective effect

C/C=C1\[C@H]2C=C(C)C[C@]1(N)c1ccc(=O)[nH]c1C2 [HA, huperzine A, reference compound]
TH positive neuron survival (1 nM): inactive | TH positive neuron survival (100 nM): > 90% | TH positive neuron survival (100 μM (in some well toxicity occurred)): did not show some protective effect | TH positive neuron survival (from 10 nM up to 10 μM): large and significant protective effect
